Reference: patent publication US11857550B2, “Benzathine analogs” (University of Pittsburgh—Of the Commonwealth System of …, priority 2012, dated 2024)

Columns and labels:
[1] = test system: human PBMC cells; assay: LPS-induced IL1β and TNFα cytokine release from PBMC cells (ELISA); format: cell-based; conditions: LPS-exposed human PBMC
Protocol: (§1) FIGS. 20A-20J is a table depicting benzathine compounds, and assay results. PBMC cells (0.6 ml at 1.5*10^6/ml) were treated with 2 ug/ml LPS for 16 hrs along with each compound at different concentrations. IL1β and TNFα cytokine release were monitored by ELISA to calculate the IC50. U937 monocyte (0.6 ml at 1.5*10^6/ml) were treated with each compound at different concentrations for 16 h. Cells were then stained with Trypan blue to differentiate dead cells, and calculate the LD50. Therapeutic index (TI)=LD50/IC50. Compounds marked in red are high value targets (low IC50, high LD50) and require further testing in vivo.
(§2) Briefly, compounds were added to human PBMC cells at different concentrations that were exposed to […] and cytokine secretion was monitored by ELISA to determine the IC50. Compounds were also added to U937 monocytes at different concentrations, and cells were stained with trypan blue to determine the LD50. […] Several functional studies were undertaken to assess anti-inflammatory effects focusing on BC-1215.

[2] = test system: U937 monocyte; assay: U937 monocyte Trypan blue cell death (LD50); format: cell-based, human; conditions: U937 monocytes, 16 h
Protocol: as §1, §2

[3] = test system: MLE cells; assay: BrdU/7-AAD FACS cell cycle and apoptosis analysis; format: cell-based, murine
Protocol: FIGS. 27A-27G. […] A. PBMCs from 5 controls, AML, and ALL subjects were cultured in RPMI medium for 18 h. Cells were then collected, lysed, and assayed for protein immunoblotting. B-D. Human leukemia cells (U937, K562 and THP1 cells) were treated with BC-1258 at different concentrations for 16 h. Cells were collected and assayed for Aurora B, cyclin D2, cyclin D3 and FBXL2 immunoblotting. E-F. MLE cells were treated with BC-1258 at different concentrations for 16 h, cells were processed by BrdU uptake and 7-AAD staining followed by FACS cell cycle analysis (E), 2N, 4N, and 8N DNA histograms were quantitated and graphed in (F). G. Quantification of FACS analysis showing levels of apoptotic MLE cells after BC-1258 treatment at each time point.

[4] = test system: U937 tumor implants; assay: U937 tumor xenograft in nude mice; format: in vivo; conditions: 30 ug/ml in the drinking water
Protocol: FIGS. 28A-281. […] A-E. Effect of BC-1258 and other compounds on growth of U937 tumor implants in nude mice, n=4 mice/group with drug concentration at 30 ug/ml in the drinking water. […] B. Tumor volume measurements over time (n=4 mice/group, *P<0.05 versus con). D. Tumor tissue from C were weighted and graphed (n=4 mice/group, *P<0.05 versus con). E. Tumors from three controls and three drug treated U937 implants in mice were collected at the end-point, and assayed for AuroraB, CaM and FBXL2 proteins by immunoblotting. F-I. Serum of each mice were collected at the end point and processed for creatinine, LDH, ALT and creatine kinase activity.

[5] = test system: C57BL6 mice; assay: Pseudomonas aeruginosa PA103 pneumonia model; format: in vivo; conditions: i.p., PA103 2.5*10^4 cfu/mouse i.t., 18 h
[6] = test system: C57BL6 mice; assay: TPA induced ear edema; format: in vivo; conditions: various doses to ears 30 min after TPA, 18 h
Protocol: FIGS. 15A-15C. […] FIG. 15A-15C. C57BL6 mice were deeply anesthetized with ketamine (80-100 mg/kg i.p.) and xylazine (10 mg/kg i.p.). 20 μl of ethanol solution of BC-1215 was applied to ears at 8, 40, 200 ug/ear 30 min after TPA administration (2 μg/ear). Comparisons included equal volumes of ethanol (vehicle control). 18 h after TPA administration, mice were euthanized; the thickness of the ear was measured using a micrometer (FIG. 15B). Ear punch biopsies were also taken immediately, weighed and graphed (FIG. 15C).
FIGS. 23A-23D. […] Different dose of BC-1261 was applied to ears of mice at various doses 30 min after TPA administration (2 μg/ear). A. Gross comparisons were made with equal volumes of ethanol as a vehicle control (CON). 18 h after TPA administration, mice were euthanized and the thickness of the ear was measured using a micrometer (B). Autopsy sample were also taken to measure MPO activity (C) and calculate ear edema (D). The data represent n=6 mice/group, *P<0.05 versus TPA.
Topical application of BC-1215 as an anti-inflammatory agent was tested in a model of 12-O-tetradecanoylphorbol-13-acetate (TPA) induced ear edema (Bralley et. al., J Inflamm (LOnd), 2008. 5:p.1). Briefly, 20 μl of an ethanol solution of BC-1215 was applied to ears of mice at 8, 40, and 200 ug/ear for 30 min after TPA administration (2 μg/ear). Comparisons included equal volumes of ethanol (vehicle control). 18 h after TPA administration, mice were euthanized; the thickness of the ear was measured using a micrometer. Ear punch biopsies were also taken immediately, weighed, and graphed.

[7] = test system: C57BL6 mice; assay: DSS induced (acute) colitis; format: in vivo; conditions: 150 μg daily i.p. or 30 μg/ml drinking water, 3.5% DSS
Protocol: FIGS. 17A-17D. BC-1215 reduces DSS induced colonic inflammation. FIGS. 17A-FIG. 17C. C57BL6 mice were fed with water containing 3.5% dextran sulfate sodium (DSS) for up to five days. Mice were treated with either vehicle or 100 ug of BC-1215 daily (via IP injection). Mice were then euthanized; the length of the colon was measured and graphed in (FIG. 17A). Colonic tissues were also analyzed for IL1β (FIG. 17B) and TNFα (FIG. 17C) by ELISA. (n=4 mice/group, *p<0.05 versus DSS) FIG. 17D, H&E staining was performed on colonic samples. (n=4 mice/group, *p<0.05 versus DSS)
FIGS. 24A-24E. […] A-D. C57BL6 mice were fed with water ad lib containing 3.5% dextran sulfate sodium (DSS) for up to five days. Mice were treated with either vehicle (control [CON]) or BC-1261 (150 μg) daily (via an i.p. injection), or BC-1261 were administered into drinking water at 30 μg/ml (po). Mice were then euthanized and the length of the colon was measured and graphed in (A-B). Colonic tissues were also analyzed for TNFα (C) and IL6(D). E. H&E staining was performed on colonic sections. The data represent n=4 mice/group, *P<0.05 versus DSS and **P<0.05 versus CON.
BC-1215 ameliorates DSS induced colitis. BC-1215 was also tested in a mouse colitis model to confirm its anti-inflammatory activity. Briefly, C57BL6 mice were fed with water containing 3.5% dextran sulfate sodium (DSS) for up to five days. Mice were treated with either vehicle or 200 ug of BC-1215 daily (via IP injection). Mice were then euthanized; the length of colons was measured. […] Colonic tissue cytokine levels were analyzed. […] Thus, the FBXO3 inhibitor BC-1215 suppresses inflammation in chemical induced colitis model in mice.

[8] = test system: mice; assay: Cigarette smoke induced chronic lung inflammation; format: in vivo; conditions: 100 ug i.p. after 5 weeks smoke, 18 h
Protocol: FIGS. 22A-22C. […] Mice were exposed to cigarette smoke for 5 weeks before one does of i.p. injection of BC1261 (100 ug), 18 h later, mice were euthanized and lungs were lavaged with saline, harvested, and then homogenized. Lavage protein, cell counts and cytokine secretion were measured in (A-C). The data represent n=3 mice/group, *P<0.05 versus con.

[9] = test system: C57BL6 mice; assay: DSS induced chronic colonic inflammation; format: in vivo; conditions: 30 μg/ml drinking water from day 7, 2% DSS cycles
Protocol: FIGS. 25A-25J. […] A. C57BL6 mice were fed with water ad lib containing 2% dextran sulfate sodium (DSS) for six days, then switch to water for up to three cycles. BC-1261 was administered into drinking water at 30 μg/ml, starting at day 7. Mice were euthanized at the end of the experiment and the length of the colon was measured and graphed in (B-C). Disease index was measured and graphed in (D). Serum cytokine levels were measured in (E-F). Colonic tissues cytokines and MPO activity were also analyzed (GJ). The data represent n=7 mice/group, *P<0.05 versus CON.

## c1cn(-c2ccc(CNCCNCc3ccc(-n4ccnc4)cc3)cc2)cn1 [BC-1207]
[1]
  IC50 (cytokine secretion): high
[2]
  LD50: low

## Fc1ccc(CNCCNCc2ccc(-c3ccccn3)cc2)cc1 [BC-1241]
[1]
  IC50 (cytokine secretion): high
[2]
  LD50: low

## c1cnn(-c2ccc(CNCCNCc3ccc(-n4cccn4)cc3)cc2)c1 [BC-1250]
[1]
  IC50 (cytokine secretion): high
[2]
  LD50: low

## c1csc(-c2ccc(CNCCNCc3ccc(-c4nccs4)cc3)cc2)n1 [BC-1258]
[3]
  apoptosis: apoptosis
[3]; different concentrations, 16 h
  cell cycle arrest: Induces G2/M arrest
[4]
  tumor growth: suppresses tumor growth in xenograft

## c1cnc(-c2ccc(CNCCNCc3ccc(-c4ncccn4)cc3)cc2)nc1 [BC-1261]
[1]
  IC50 (cytokine secretion): high
[2]
  LD50: low
[5]
  P. aeruginosa induced lung inflammation: reduces P. aeruginosa induced lung inflammation
[6]
  TPA induced ear edema: reduces TPA induced ear edema
[7]
  DSS induced acute colonic inflammation: reduces DSS induced acute colonic inflammation
[8]
  smoke induced chronic lung inflammation: reduces smoke induced chronic lung inflammation
[9]
  DSS induced chronic colonic inflammation: reduces DSS induced chronic colonic inflammation
